Assay results published in patent US20160184276A1, “Sphingosine kinase inhibition for the treatment and prevention of obstetrical disorders” (priority 2014, published 2016).
Entries after “also recorded” stand apart in the source; their conditions may differ.

Legend:
[1] = tested on: Tnfα, Il-1β, Il-6 and ECE-1 in placentas; test: Western blot analysis of placental lysates from LPS-stimulated mice; assay type: in vivo; conditions: SKI II treated group vs LPS control group
Description: (§1) In Vivo Assay. A total of 17 timed pregnant embryonic day (E) 15.5 mice, weighing between 28 and 35 g, were used for in vivo studies. The control group (n=7) was injected intraperitoneally (ip) with 50 mg/kg lipopolysaccharide (LPS) (serotype 026:B6; Sigma) dissolved in 0.5 ml PBS at T=0 and 50 μl PEG 400 at T=1 and 7 h. The treatment group (n=7) was also injected ip with the same dose of LPS and then injected with 50 mg/kg SphK inhibitor (SKI II) dissolved in PEG 400 at T=1 and 7 h. The sham group (n=3) was injected ip with 0.5 ml PBS at T=0 and 50 μl PEG 400 at T=1 and 7 h. After injections at T=7 h, mice were continuously observed for time of delivery and number of pups dropped. […] All mice were euthanized by carbon dioxide asphyxiation and necropsied to confirm pregnancy and the number of pups retained in utero was recorded. The retained placentas and uteri were harvested and stored at −80° C. or in 10% neutral buffered formalin at room temperature.
Gel Electrophoresis. Frozen placentas were allowed to thaw on ice. Tissues were homogenized in 0.25 ml ice cold lysis buffer, using a Polytron homogenizer. The samples were homogenized on ice for 2 min at 15 min intervals. This procedure was continued for 2 h and the final homogenates were centrifuged at 10,000×g for 10 min. Volumes of supernatant containing […] of protein based on BCA assay, using bovine serum albumin as standard, were diluted in_NuPAGE® LDS sample buffer and the samples were heated at 95° C. for 5 minutes. Bis-Tris gels were used for protein separation. Gel electrophoresis was carried out in an XCell SureLock Mini-Cell apparatus. The gels were allowed to run for 45 minutes with MOPS running buffer at 125 mA and 200V. Proteins were then transferred to a polyvinylidene difluoride (PVDF) membrane, using an XCell II Blot Module. Transfer was carried out for 2 h on ice at a 170 mA current and a constant voltage of 30 V with NuPAGE transfer buffer
Western Blot Analysis. […] The membranes were analyzed for different proteins using their respective primary antibodies, i.e. TNFα, IL-1β, IL-6, IL-10 and ECE-1 diluted in the blocker solution overnight at 4° C. […] They were then treated with ECL Plus western blotting detection system and the chemiluminescence produced by the chemical reaction was detected by exposure to an autoradiography film. […] The protein content was quantified using Image J software (from NIH). […]
(§2) Statistical Analysis. For in vivo studies, the effect of SKI II on the percent of LPS stimulated mice delivering and on the percent of pups rescued from spontaneous abortion was evaluated with the Chi square and Fisher exact tests, respectively. […]

[2] = tested on: LPS-stimulated timed pregnant mice; test: LPS-induced preterm birth in timed pregnant mice (in vivo assay)
Description: as §1
Statistical Analysis. For in vivo studies, the effect of SKI II on the percent of LPS stimulated mice delivering and on the percent of pups rescued from spontaneous abortion was evaluated with the Chi square and Fisher exact tests, respectively. Differences in rates of PTB and rates of pups delivered over time were evaluated with log-rank (Mantel-Cox) or Gehan-Breslow-Wilcoxon test. The U-test along with Analysis of Variance (ANOVA) and Tukey's multiple comparison test were used to evaluate differences in inflammatory infiltration in histologic sections. Differences in mean expression of cytokine proteins in immunoblots and in immunohistochemistry were determined using ANOVA with Tukey's multiple comparison test.

[3] = tested on: Tnfα, Il-1β, Il-6 in placental labyrinth; test: Immunohistochemistry of cytokines in placental labyrinth; assay type: in vivo, mice; conditions: SKI II vs LPS
Description: as §1
Immunohistochemistry (IHC). Formalin fixed paraffin-embedded tissue sections were used for IHC. The sections were deparaffinized by washing in xylene for 3 min. They were then rehydrated by washing in 100% isopropyl alcohol (2 changes), 95% alcohol, 80% alcohol, 70% alcohol and distilled water for 3 min each. The sections were incubated for 5 min with peroxidase block (3% hydrogen peroxide in water) and washed in distilled water for 3 min. […] Image-Pro Premier DAB analysis software was used for quantification of the results. […]
Statistical Analysis. For in vivo studies, the effect of SKI II on the percent of LPS stimulated mice delivering and on the percent of pups rescued from spontaneous abortion was evaluated with the Chi square and Fisher exact tests, respectively. Differences in rates of PTB and rates of pups delivered over time were evaluated with log-rank (Mantel-Cox) or Gehan-Breslow-Wilcoxon test. […] Differences in mean expression of cytokine proteins in immunoblots and in immunohistochemistry were determined using ANOVA with Tukey's multiple comparison test.

[4] = tested on: inflammatory cells (neutrophils) in placental labyrinth; test: Histology (H & E): inflammatory cell infiltration of placental labyrinth; assay type: in vivo; conditions: SKI II vs LPS-induced mice; P<0.05
Description: as §1, with “The retained placentas and uteri were harvested and stored at −80° C. or in 10% neutral buffered formalin at room temperature.” left out
Histology. […] The number of polymorphonuclear neutrophils (PMNs) were counted in the three fields and the average value was recorded. Based on the average number of neutrophils per 400× field recorded, the slides were assigned grades as follows: 0:0-5 cells, 1:6-50 cells, 2:51-100 and 3:greater than 100. […]
as §2

Structure (SMILES): Oc1ccc(Nc2nc(-c3ccc(Cl)cc3)cs2)cc1 [SKI II]
- ECE-1 expression in placenta (Western blot) [1]: clearly suppressed; also recorded: significantly suppressed
- Il-1β expression in placental lysates (Western blot) ([1]; P<0.05): reduced; also recorded: significantly suppressed
- Il-6 expression in placental lysates (Western blot) ([1]; P<0.05): reduced; also recorded: significantly suppressed
- Tnfα expression in placental lysates (Western blot) ([1]; P<0.05): reduced; also recorded: significantly suppressed
- Macroscopic congenital anomalies in pups ([2]; 97 pups of LPS control and SKI II groups): no macroscopic congenital anomalies
- Percent of mice delivered prematurely ([2]; LPS 50 mg/kg, SKI II 50 mg/kg at T=1 and 7 h, 1 out of 7 mice, 24 h): 14%
- Percent of pups dropped prematurely ([2]; LPS 50 mg/kg, SKI II 50 mg/kg at T=1 and 7 h, 2 out of 50 pups, 24 h): 4%
- Rate of pup survival (Kaplan-Meier survival curves, log rank test) ([2]; SKI II treated vs LPS control dams, P<0.0001): statistically significant difference; also recorded: significantly improved
- Litter size, fetal growth and development ([2]; observed throughout the study): No significant changes
- Placental labyrinthine level of Il-1β (immunohistochemistry) ([3]; P<0.0001): significantly reduced; also recorded: significantly suppressed
- Placental labyrinthine level of Tnfα (immunohistochemistry) ([3]; P<0.0001): significantly reduced; also recorded: significantly suppressed
- Placental labyrinthine level of Il-6 (immunohistochemistry) ([3]; P<0.01): significantly reduced; also recorded: significantly suppressed
- Inflammatory cell infiltrate in placental labyrinth [4]: significantly reduced; also recorded: subsides significantly
